The source of these data is patent US10314308B2, “Microbiocidal benzoxaboroles” (SYNGENTA PARTICIPATIONS AG, priority 2015, dated 2019).

In one series the test system is Pythium Ultimum. Description: Pythium ultimum / liquid culture (seedling damping off). The class given is cell-based. The note with it: Globisporangium ultimum, potato dextrose broth, 24° C., 2-3 days after application, read-out: disease control (inhibition of growth, photometrically).
The subject of series [1] is Monographella Nivalis(Microdochium Nivale). Briefly: Monographella nivalis (Microdochium nivale) / liquid culture (foot rot cereals). Type of series: cell-based. The note with it: PDB potato dextrose broth, 24° C., 4-5 days after application, read-out: disease control (inhibition of growth, photometrically). In a few lines: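 Growth inhibition measured photometrically after 4-5 days at 24° C. Test compound in DMSO was combined with nutrient broth (PDB) carrying conidia taken directly from cryogenic storage.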

Another series deals with Sclerotinia Sclerotiorum. Briefly: Sclerotinia sclerotiorum / liquid culture (cottony rot). Type of series: cell-based. The settings on record: PDB potato dextrose broth, 24° C., 3-4 days after application, read-out: disease control (inhibition of growth, visually). The procedure, abridged:
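Growth inhibition was read by eye 3-4 days post-application at 24° C. Compounds (DMSO solution) were combined with potato dextrose broth seeded with mycelia fragments from a newly grown liquid culture.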

In series [2] the test system is Phaeosphaeria Nodorum (Septoria Nodorum). Description: Phaeosphaeria nodorum (Septoria nodorum) / wheat / leaf disc preventative (glume blotch). Type of series: in vivo. The note with it: Parastagonospora nodorum, foliar, wheat leaf segments cv Kanzler, inoculated 2 days after application, assessed 5-7 days after application, read-out: disease control. In a few lines:
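Wheat cv Kanzler leaf discs on agar were sprayed with formulated compound, then inoculated with spores 2 days later. Incubation at 20° C, 75% RH, 12/12 h light/dark; percent disease control versus untreated assessed 5-7 days after application.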

Another series relates to Gaeumannomyces Graminis. Description: Gaeumannomyces graminis / liquid culture (take-all of cereals). The settings on record: PDB potato dextrose broth, 24° C., 4-5 days after application, read-out: disease control (inhibition of growth, photometrically). The class given is cell-based. In a few lines:
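Liquid-culture growth assay: compound delivered as DMSO solution, then fungal inoculum in potato dextrose broth added. Photometric read of growth inhibition after 4-5 days at 24° C.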

Series [3] has as its system Mycosphaerella Graminicola(Septoria Tritici). Briefly: Mycosphaerella graminicola (Septoria tritici) / liquid culture (Septoria blotch). Type of series: cell-based. The note with it: Zymoseptoria tritici, PDB potato dextrose broth, 24° C., 4-5 days after application, read-out: disease control (inhibition of growth, photometrically). The procedure, abridged:
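Growth inhibition measured by photometry 4-5 days post-application, at 24 °C, in liquid culture of spores taken straight from cryogenic storage into potato dextrose broth, with test compound supplied in DMSO.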

In a further series the test system is Phytophthora Infestans. Description: whole plant or invertebrate. The class given is in vivo. The note with it: in Solanum lycopersicum, foliar, read-out: disease control.
The subject of series [4] is Mycosphaerella Arachidis(Cercospora Arachidicola). Description: Mycosphaerella arachidis (Cercospora arachidicola) / liquid culture (early leaf spot). The note with it: PDB potato dextrose broth, 24° C., 4-5 days after application, read-out: disease control (inhibition of growth, photometrically). Type of series: cell-based. The procedure, abridged: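 Growth inhibition was read photometrically 4-5 days post-application, following incubation at 24 °C. Test compounds in DMSO were combined with fungal spores from cryogenic storage suspended in potato dextrose broth.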

The next series relates to Fusarium Culmorum. Briefly: microbe, parasite or virus in culture. Type of series: cell-based. The settings on record: read-out: disease control (inhibition of growth, photometrically).
The subject of another series is Plasmopara Viticola. Briefly: whole plant or invertebrate. The class given is in vivo. The settings on record: foliar, read-out: disease control.
Series [5] concerns Glomerella Lagenarium(Colletotrichum Ladenarium). Description: Glomerella lagenarium (Colletotrichum lagenarium) / liquid culture (anthracnose). The class given is cell-based. The settings on record: PDB potato dextrose broth, 24° C., 3-4 days after application, read-out: disease control (inhibition of growth, photometrically). The procedure, abridged: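 Compound dissolved in DMSO was combined with potato dextrose broth carrying conidia taken directly from cryogenic storage. Photometric growth inhibition readings were taken after 3–4 days of incubation at 24 °C.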

Series [6] relates to Thanatephorus Cucumeris(Rhizoctonia Solani). Briefly: Thanatephorus cucumeris (Rhizoctonia solani) / liquid culture (foot rot, damping-off). The class given is cell-based. The note with it: PDB potato dextrose broth, 24° C., 3-4 days after application, read-out: disease control (inhibition of growth, photometrically). The procedure, abridged: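 Photometric growth-inhibition read 3-4 days after treatment at 24° C. Compounds applied from DMSO at 200 ppm, then fungal mycelium fragments in PDB broth added.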

For series [7], the system named is Botryotinia Fuckeliana(Botrytis Cinerea). Description: Botryotinia fuckeliana (Botrytis cinerea) / liquid culture (gray mould). Type of series: cell-based. The note with it: Vogels broth, 24° C., 3-4 days after application, read-out: disease control (inhibition of growth, photometrically). Here is the method:
9 Botryotinia Fuckeliana(Botrytis Cinerea)/Liquid Culture (Gray Mould) Conidia of the fungus from cryogenic storage were directly mixed into nutrient broth (Vogels broth). After placing a DMSO solution of test compound into a 96-well microtiter plate, the nutrient broth containing the fungal spores was added. The test plates were incubated at 24° C. and the inhibition of growth was determined photometrically 3-4 days after application.

The subject of series [8] is Puccinia Recondita f. sp. Tritici. Briefly: Puccinia recondita f. sp. tritici / wheat / leaf disc preventative (brown rust). Type of series: in vivo. The note with it: foliar, wheat leaf segments cv Kanzler, inoculated 1 day after application, assessed 7-9 days after application, read-out: disease control. How it is done:
3 Puccinia Recondita f. sp. Tritici/Wheat/Leaf Disc Preventative (Brown Rust) Wheat leaf segments cultivated variety (cv) Kanzler were placed on agar in 24-well plates and sprayed with formulated test compound diluted in water. The leaf disks were inoculated with a spore suspension of the fungus 1 day after application. The inoculated leaf segments were incubated at 19° C. and 75% relative humidity under a light regime of 12/12 h (light/dark) in a climate cabinet and the activity of a compound was assessed as percent disease control compared to untreated when an appropriate level of disease damage appears in untreated check leaf segments (7-9 days after application).

What is called inhibition is the drop in the measured response relative to a control, in per cent. One may read the melting point as the temperature of the solid-liquid transition. With `OB1OCc2cc(F)c(-c3cnoc3)cc21` [Compound 11], the melting point is 230 to 232 °C. Besides, in the series on Pythium Ultimum, the inhibition at 20 ppm is not below 80%. Also, the inhibition at 20 ppm in series [1] was not below 80%. Also, the inhibition at 20 ppm with Sclerotinia Sclerotiorum was not below 80%. In addition, in series [2], the pest or weed control at 200 ppm was not below 80%. Further, in the series with Gaeumannomyces Graminis, the inhibition at 20 ppm is not below 80%. Also, the inhibition at 20 ppm in series [3] is not below 80%. For the same molecule, the pest or weed control at 200 ppm in the series on Phytophthora Infestans is not below 80%. Moreover, in series [4], the inhibition at 20 ppm was not below 80%. The inhibition at 20 ppm in the series on Fusarium Culmorum is not below 80%.
In the case of `OB1OCc2cc(F)c(-c3ccc(Cl)nc3)cc21` [Compound 13, 2-chloro-5-(5-fluoro-1-hydroxy-3H-2,1-benzoxaborol-6-yl)pyridine], the melting point was 213 to 215 °C. Further, the inhibition at 20 ppm in the series with Pythium Ultimum was not below 80%. In addition, the inhibition at 20 ppm in [1] is not below 80%. The pest or weed control at 200 ppm with Plasmopara Viticola is not below 80%. The inhibition at 20 ppm with Gaeumannomyces Graminis is not below 80%. Further, the pest or weed control at 200 ppm with Phytophthora Infestans was not below 80%.
For the molecule `Cc1csc(-c2cc3c(cc2Cl)COB3O)n1` [Compound 15], the inhibition at 20 ppm (in the series on Pythium Ultimum; in [1]; with Sclerotinia Sclerotiorum; in the series with Gaeumannomyces Graminis; in series [3]; in series [5]) was not below 80% each time. Further, the inhibition at 20 ppm (in [6]; in series [4]; with Fusarium Culmorum) was not below 80% throughout. The pest or weed control at 200 ppm with Plasmopara Viticola and in the series on Phytophthora Infestans was not below 80% throughout.
Take `O/N=C/c1ccc(-c2cc3c(cc2F)COB3O)o1` [Compound 27]: the melting point was in the range of 200 to 220 °C. The inhibition at 20 ppm with Pythium Ultimum was not below 80%. Besides, the inhibition at 20 ppm in series [1] was not below 80%. For the same molecule, the pest or weed control at 200 ppm in the series with Plasmopara Viticola was not below 80%. Also, the pest or weed control at 200 ppm with Phytophthora Infestans was not below 80%. In addition, in series [5], the inhibition at 20 ppm is not below 80%. Besides, the inhibition at 20 ppm in [4] was not below 80%.
Regarding `OB1OCc2cc(F)c(-c3ncno3)cc21` [Compound 29], the melting point lay in the range of 204 to 206 °C. Moreover, in the series on Pythium Ultimum, the inhibition at 20 ppm was not below 80%. For the same molecule, the inhibition at 20 ppm in series [1] is not below 80%. The inhibition at 20 ppm with Sclerotinia Sclerotiorum was not below 80%. Further, in series [2], the pest or weed control at 200 ppm was not below 80%. The inhibition at 20 ppm with Gaeumannomyces Graminis is not below 80%. Also, the inhibition at 20 ppm in series [3] was not below 80%. Besides, the pest or weed control at 200 ppm in the series on Phytophthora Infestans is not below 80%. In series [5], the inhibition at 20 ppm is not below 80%. For the same molecule, in [6], the inhibition at 20 ppm was not below 80%. Also, in series [4], the inhibition at 20 ppm was not below 80%. The inhibition at 20 ppm in [7] is not below 80%. The inhibition at 20 ppm with Fusarium Culmorum is not below 80%.
For `Cc1noc(-c2cc3c(cc2F)COB3O)n1` [Compound 30, 5-(5-fluoro-1-hydroxy-3H-2,1-benzoxaborol-6-yl)-3-methyl-1,2,4-oxadiazole], the melting point lay within 200 to 202 °C. Moreover, in the series with Pythium Ultimum, the inhibition at 20 ppm is not below 80%. The inhibition at 20 ppm in series [1] is not below 80%. Also, the inhibition at 20 ppm in the series with Sclerotinia Sclerotiorum is not below 80%. Moreover, the inhibition at 20 ppm with Gaeumannomyces Graminis was not below 80%. In addition, in series [3], the inhibition at 20 ppm was not below 80%. Besides, the pest or weed control at 200 ppm in the series with Phytophthora Infestans is not below 80%. For the same molecule, in series [5], the inhibition at 20 ppm is not below 80%. Besides, the inhibition at 20 ppm in series [4] was not below 80%. The inhibition at 20 ppm in [7] is not below 80%.
As to `N#Cc1cscc1-c1cc2c(cc1Cl)COB2O` [Compound 42], the inhibition at 20 ppm (in the series with Pythium Ultimum; in [1]; with Sclerotinia Sclerotiorum; with Gaeumannomyces Graminis; in [3]; in [5]) was not below 80% each time. For the same molecule, the inhibition at 20 ppm (in series [4]; in the series on Fusarium Culmorum) was not below 80% throughout. For the same molecule, the pest or weed control at 200 ppm (in series [2]; in the series with Plasmopara Viticola; in the series with Phytophthora Infestans) was not below 80% throughout.
Consider `Cc1cc(-c2cc3c(cc2F)COB3O)c(C#N)o1` [Compound 56], for which the inhibition at 20 ppm (in the series on Pythium Ultimum; in series [1]; in the series with Gaeumannomyces Graminis; in [6]; in series [4]) was not below 80% each time. Also, the pest or weed control at 200 ppm (in the series with Plasmopara Viticola; in series [8]; in the series with Phytophthora Infestans) was not below 80% throughout.
For the molecule `COc1c(-c2nnco2)ccc2c1B(O)OC2` [Compound 93], the melting point lay in the range of 176 to 178 °C. Moreover, the inhibition at 20 ppm with Pythium Ultimum was not below 80%. In the series with Gaeumannomyces Graminis, the inhibition at 20 ppm was not below 80%. In addition, the pest or weed control at 200 ppm with Phytophthora Infestans was not below 80%. Besides, the inhibition at 20 ppm in [5] is not below 80%. Further, in series [4], the inhibition at 20 ppm was not below 80%.
Molecule `OB1OCc2cc(Cl)c(-c3nnco3)cc21` [Compound 94] came in with a melting point of 202 to 204 °C. Also, the inhibition at 20 ppm in the series on Pythium Ultimum is not below 80%. For the same molecule, the inhibition at 20 ppm with Sclerotinia Sclerotiorum is not below 80%. Further, in [2], the pest or weed control at 200 ppm is not below 80%. In addition, the inhibition at 20 ppm with Gaeumannomyces Graminis was not below 80%. The inhibition at 20 ppm in series [3] was not below 80%. Moreover, the pest or weed control at 200 ppm in the series with Phytophthora Infestans is not below 80%. Besides, the inhibition at 20 ppm in series [5] is not below 80%. Besides, the inhibition at 20 ppm in series [4] was not below 80%.
In turn, `OB1OCc2cc(F)c(-c3nnco3)cc21` [Compound 95] displayed a melting point of 237 to 239 °C. For the same molecule, the inhibition at 20 ppm in the series on Pythium Ultimum was not below 80%. Besides, the inhibition at 20 ppm with Sclerotinia Sclerotiorum was not below 80%. Moreover, the inhibition at 20 ppm with Gaeumannomyces Graminis was not below 80%. Moreover, the pest or weed control at 200 ppm with Phytophthora Infestans was not below 80%. In series [5], the inhibition at 20 ppm is not below 80%. Moreover, the inhibition at 20 ppm in series [4] was not below 80%.
`OB1OCc2cc(F)c(-c3ncon3)cc21` [Compound 97] showed a melting point of 226 to 228 °C. In addition, the inhibition at 20 ppm with Pythium Ultimum is not below 80%. The inhibition at 20 ppm in series [1] was not below 80%. In addition, the inhibition at 20 ppm in the series with Sclerotinia Sclerotiorum was not below 80%. Also, the pest or weed control at 200 ppm in series [2] is not below 80%. In the series on Gaeumannomyces Graminis, the inhibition at 20 ppm is not below 80%. Moreover, the inhibition at 20 ppm in series [3] is not below 80%. In addition, the pest or weed control at 200 ppm in the series with Phytophthora Infestans was not below 80%. The inhibition at 20 ppm in series [5] is not below 80%. For the same molecule, the inhibition at 20 ppm in [6] is not below 80%. Further, the inhibition at 20 ppm in [4] was not below 80%. Further, the inhibition at 20 ppm in [7] was not below 80%. In addition, the inhibition at 20 ppm in the series on Fusarium Culmorum is not below 80%.
